Test results from ChEMBL document CHEMBL1129123, “Drupangtonine, a novel antileukemic alkaloid from Cephalotaxus harringtonia var. drupacea” (Bioorg Med Chem Lett, 1996).
Converted amounts (≈) assume the structure as drawn.

Test system: P388
Assay: Antileukemic activity against P-388 leukemia cells.
Format: functional, cell-based
Details: Mus musculus

## COC(=O)C[C@](O)(CCC(C)C)C(=O)O[C@H]1[C@H]2c3cc4c(cc3[C@H]3CN5CCC[C@]25C[C@]1(OC)O3)OCO4
  IC50: 0.007 µg/mL (≈ 0.0132 µM)

## COC(=O)C[C@](O)(CCC(C)C)C(=O)O[C@@H]1C(OC)=CC23CCCN2CCc2cc4c(cc2[C@H]13)OCO4 (single isomer, unassigned) [DEOXYHARRINGTONINE]
  IC50: 0.0075 µg/mL (≈ 0.0145 µM)

## COC(=O)C[C@](O)(CCC(C)(C)O)C(=O)O[C@@H]1C(OC)=CC23CCCN2CCc2cc4c(cc2[C@H]13)OCO4 (single isomer, unassigned) [HARRINGTONINE]
  IC50: 0.032 µg/mL (≈ 0.0602 µM)

## COC(=O)C[C@](O)(CCCC(C)(C)O)C(=O)O[C@@H]1C(OC)=CC23CCCN2CCc2cc4c(cc2[C@H]13)OCO4 (single isomer, unassigned) [OMACETAXINE MEPESUCCINATE]
  IC50: 0.017 µg/mL (≈ 0.0312 µM)
